Assays:
Assay type in all cases: in vivo
Katinka plum [1] = assay: Spray of plum trees at petal fall (BBCH stage 69), fruit set, yield, fruit weight; conditions: at harvest
Procedure: (§1) Trees of Katinka plum were sprayed at petal fall (BBCH stage 69) with 500 ppm or 1000 ppm ABA or left untreated (Table 4). Percent fruit set, average yield and average fruit weight were determined at harvest. Spraying Katinka plum trees with ABA reduced fruit set percentage and yield per tree and increased average fruit weight (Table 4).

[2] = tested on: European seedless cucumber (var. Flamingo) plants; assay: Foliar spray of greenhouse cucumber plants, fruit abortion; conditions: 100 ppm, sprayed to drip at 20 node growth stage
Procedure: European seedless cucumber (var. Flamingo) plants were grown in a greenhouse. At the 20 node growth stage the plants were sprayed to drip with ABA (100 ppm) solution or left unsprayed (control). ABA treated plants had twice the rate of fruit abortion compared to the control plants (Table 6).

Lady Elana Apricot = assay: Spray of trees at petal fall (BBCH stage 69), fruit set; conditions: 1000 ppm at petal fall; at harvest
Procedure: (§2) Trees of Lady Elana Apricot and Elegant Lady Peach were sprayed at petal fall (BBCH stage 69) with 1000 ppm ABA or left untreated (Table 5). Percent fruit set was determined at harvest. Spraying Lady Elana Apricot and Elegant Lady Peach trees with ABA reduced percent fruit set (Table 5).

Elegant Lady Peach = assay: as above; conditions: 1000 ppm at petal fall; at harvest
Procedure: as §2

PF-27 peach trees = assay: Foliar spray of peach tree limbs at shuck split stage, fruit retention; conditions: 1000 ppm, sprayed to runoff
Description: Limbs of PF-27 peach trees with fruit at the shuck split stage were flagged; the number of fruit distal to the flagging was counted. The limbs were sprayed to runoff with either water or 1000 ppm abscisic acid (S-ABA; ABA; S-(+)-abscisic acid; +-ABA, (+)-(S)-cis,trans-abscisic acid,(+)-(S)-cis,trans-ABA; S-ABA; (S)-5-(1-hydroxy-2,6,6,-trimethyl-4-oxo-2-cyclohexen-1-yl)-3-methyl-(2Z,4E)-pentadienoic acid; CAS no. 21293-29-8). After 8 and 19 days the fruit were re-counted and the percent fruit retention was determined. Limbs treated with 1000 ppm ABA retained less fruit than limbs treated with water 19 days following treatment (Table 1).

Katinka plum [3] = assay: Spray of plum trees at fruitlet set stage, fruit set and fruit size; conditions: 600 ppm at fruitlet set stage
Procedure: (§3) Trees of Cacaks Schone plum and Katinka plum were sprayed with 600 ppm ABA at the fruitlet set stage or left untreated. The number of fruit per flower was determined after the normal fruit drop period had ended. At harvest the weight per 100 fruits was measured for both the ABA treated and the untreated trees. Spraying Cacaks Schone or Katinka plum trees with ABA at the fruitlet set stage reduced the number of fruits per flower and increased the average fruit weight compared to untreated trees (Table 2).

Cacaks Schone plum = assay: as above; conditions: 600 ppm at fruitlet set stage
Procedure: as §3

Cacaks plum = assay: Spray of plum trees at petal fall (BBCH stage 69), fruit set, yield, fruit weight; conditions: at harvest
Procedure: as §1, with “Cacaks” for “Katinka”, “3).” for “4).”

For “(S)-5-(1-hydroxy-2,6,6,-trimethyl-4-oxo-2-cyclohexen-1-yl)-3-methyl-(2Z,4E)-pentadienoic acid [ABA]”, the “% Fruit set” value (Katinka plum [1]; 500 ppm at petal fall) was 28%, the Fruit weight (Katinka plum [1]; 500 ppm at petal fall) was 26.2 g and the Yield (Katinka plum [1]; 500 ppm at petal fall) was 4.2 kg/tree. For the same substance, the “% Fruit set” value (Katinka plum [1]; 1000 ppm at petal fall) was 21%, the Fruit weight (Katinka plum [1]; 1000 ppm at petal fall) was 28.0 g and the Yield (Katinka plum [1]; 1000 ppm at petal fall) was 4.4 kg/tree. The “Percentage of basal 18 cucumber fruits per plant that aborted” value [2] was 68%, the “rate of fruit abortion compared to the control plants” value [2] was “twice” and the “% Fruit set” value (Lady Elana Apricot) was 33%. For the same substance, the “% Fruit set” value (Elegant Lady Peach) was 36%, the percent fruit retention (PF-27 peach trees; 8 days after treatment) was 97% and the percent fruit retention (PF-27 peach trees; 19 days after treatment) was 69%. It also gave a Fruit/flower (Katinka plum [3]; after normal fruit drop period) of 0.45, a 100 fruit weight (Katinka plum [3]; at harvest) of 2.35 kg and a Fruit/flower (Cacaks Schone plum; after normal fruit drop period) of 0.09. For the same substance, the 100 fruit weight (Cacaks Schone plum; at harvest) was 2.23 kg, the “% Fruit set” value (Cacaks plum; 500 ppm at petal fall) was 20% and the Fruit weight (Cacaks plum; 500 ppm at petal fall) was 14.5 g. The Yield (Cacaks plum; 500 ppm at petal fall) was 8.0 kg/tree, the “% Fruit set” value (Cacaks plum; 1000 ppm at petal fall) was 11% and the Fruit weight (Cacaks plum; 1000 ppm at petal fall) was 14.6 g. The Yield (Cacaks plum; 1000 ppm at petal fall) was 7.0 kg/tree.

Reference: patent US20080227644A1, “Use of abscisic acid to control fruiting” (priority 2007, published 2008)
